Like-named read-outs stand apart in the source and are kept apart here.
Experiments:
Assay type in all cases: cell-based
[1] = target: T1, NKX2-5 transcriptional activity (Mus musculus, UniProt P42582); experiment: NKX2-5 luciferase reporter assay (3xNKE reporter, COS-1 cells); conditions: for activity at 3 µM: read-out: NKX.3µM; for activity at 10 µM: read-out: NKX.10µM
T1 construct: expressed in transfected cells; host or cells: COS-1
Procedure: (§1) To screen compounds for the GATA4–NKX2-5 interaction, we have developed a luciferase reporter assay based on their property to activate gene transcription synergistically through the NKX2-5 binding site on DNA.[28] In this assay, we transfected mammalian COS-1 cells with protein expression vectors for GATA4 and NKX2-5 proteins together with artificial luciferase reporter vector containing three high affinity binding sites for NKX2-5 (NKE). […] All 257 compounds were tested in two concentrations, 3 and 10 μM. Compounds either inhibited, enhanced, or had no effect on the GATA4–NKX2-5 transcriptional synergy. To investigate the selectivity of the active compounds, we tested their effects on NKX2-5 transcriptional activity by using the same luciferase reporter vector as in transcriptional synergy assay with three NKE sites (Figure 3B). Furthermore, we used GATA luciferase reporter assay to examine if compounds have an effect on GATA4 transcriptional activity. In this assay, we cotransfected the cells with a GATA4 protein expression vector and a reporter vector with tandem GATA4 binding sites (Figure 3C). Previously we have reported that compound 1 inhibited the GATA4–NKX2-5 transcriptional synergy at micromolar concentrations (IC50 = 3 μM).[29]
(§2) The plasmids expressing mouse GATA4 protein, pMT2-GATA4, and empty pMT2 were gifts from D. B. Wilson (Department of Pediatrics, St. Louis Children’s Hospital, St. Louis, MO).[44] The plasmids expressing mouse NKX2-5 protein, pMT2-NKX2-5, have been described earlier.[28] The luciferase reporter plasmid used in GATA4–NKX2-5 transcriptional synergy assay and NKX transcriptional assay, pGL3-3xHA, contains three high affinity binding sites for NKX2-5.[28] The luciferase reporter plasmid used in GATA transcriptional assay, NP-112, contains tandem GATA-sites and minimal promoter of rat brain natriuretic peptide (BNP) gene.[45] The pGL3-BNP luciferase reporter containing −534/+4 bp rat BNP proximal promoter described previously was used in hypertrophy assay.[46]
(§3) The primary screening assay of compounds’ effect on GATA4–NKX2-5 transcriptional synergy and COS-1 cell culturing has been described earlier.[33] […] (Kinnunen et al., unpublished observation). Briefly, COS-1 cells were seeded at 14 000 cells/well in Isoplate-96 microplates (PerkinElmer, Turku, Finland) and grown overnight. The cells were transfected with the luciferase reporter plasmid pGL3-3xHA 100 ng/well and equal amounts of expression plasmids pMT2-GATA4 and pMT2-NKX2-5 total 50 ng/well. To verify the synergistic effect, the cells were transfected with pMT2-GATA4 or pMT2-NKX2-5 25 ng/well, and the total DNA concentration was adjusted to 50 ng/well with empty pMT2 plasmid. In NKX2-5 and GATA4 luciferase reporter assays, the cells were transfected with reporter plasmid pGL3-3xHA or NP-112 (100 ng/well) and expression plasmid pMT2-NKX2-5 or pMT2-GATA4 (25 ng/well). The ratio of DNA/transfection reagent (Fugene 6, Promega) was 1:3 in all assays. The transfections were performed in serum and antibiotics free media for 6 h. The cells were treated with compounds or vehicle (0.1% DMSO) for 24 h, and the luminescence was measured using neolite Reporter Gene Assay System (PerkinElmer, Turku, Finland) and Victor2 plate reader (PerkinElmer, Turku, Finland).
(§4) Raw luciferase data were analyzed in Excel, and clear outliers were removed from triplicates by using the Grubb’s test. Data analysis was performed using R.[49] The luciferase data were first normalized on the basis of the combined mean value of controls. For data visualization and creation of figures, the following R packages were used: ggplot2, cowplot, RColorBrewer, and pheatmap. The heatmaps of the toxicity data were produced with GraphPad Prism 7.00 (GraphPad Software, La Jolla, CA). Statistical significance of luciferase reporter assay data was evaluated by randomized block analysis of variance followed by Dunnett’s post hoc test. […]

[2] = target: T2, GATA4–NKX2-5 transcriptional synergy (Mus musculus, UniProt P42582+Q08369); experiment: GATA4–NKX2-5 transcriptional synergy luciferase reporter assay (3xNKE reporter, COS-1 cells)
T2 construct: expressed in transfected cells; host or cells: COS-1

[3] = target: T3, GATA4 transcriptional activity (Mus musculus, UniProt Q08369); experiment: GATA4 luciferase reporter assay (tandem GATA-site reporter, COS-1 cells)
T3 construct: expressed in transfected cells; host or cells: COS-1
Procedure: as §1, §2, §3, §4

[4] = COS-1, 3 µM, luciferase reporter activity, % of control
[5] = COS-1, 10 µM, luciferase reporter activity, % of control
[6] = 3 µM compound, NKX2-5 luciferase reporter, COS-1 cells
[7] = 10 µM compound, NKX2-5 luciferase reporter, COS-1 cells
[8] = 3 µM compound, GATA4–NKX2-5 transcriptional synergy reporter, COS-1 cells
[9] = 10 µM compound, GATA4–NKX2-5 transcriptional synergy reporter, COS-1 cells
[10] = 3 µM compound, GATA4 luciferase reporter, COS-1 cells
[11] = COS-1, compound 3 µM, luciferase reporter activity, spread in separate STDEV column
[12] = COS-1, compound 10 µM, luciferase reporter activity, spread in separate STDEV column
[13] = 10 µM compound, GATA4 luciferase reporter, COS-1 cells

T2 sequence (Q08369 whole entry): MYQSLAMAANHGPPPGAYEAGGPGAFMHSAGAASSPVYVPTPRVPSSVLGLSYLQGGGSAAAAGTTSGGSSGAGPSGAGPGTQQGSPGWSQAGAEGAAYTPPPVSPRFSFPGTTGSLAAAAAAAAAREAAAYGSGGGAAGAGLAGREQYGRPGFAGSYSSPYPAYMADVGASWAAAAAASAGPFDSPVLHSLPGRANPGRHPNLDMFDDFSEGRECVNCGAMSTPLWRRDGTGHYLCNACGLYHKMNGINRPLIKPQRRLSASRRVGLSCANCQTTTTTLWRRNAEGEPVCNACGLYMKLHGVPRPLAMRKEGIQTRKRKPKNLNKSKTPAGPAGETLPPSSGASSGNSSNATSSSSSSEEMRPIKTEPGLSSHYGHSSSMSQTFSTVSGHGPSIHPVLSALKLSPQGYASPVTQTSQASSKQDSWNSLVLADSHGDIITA
T2 sequence (P42582 whole entry): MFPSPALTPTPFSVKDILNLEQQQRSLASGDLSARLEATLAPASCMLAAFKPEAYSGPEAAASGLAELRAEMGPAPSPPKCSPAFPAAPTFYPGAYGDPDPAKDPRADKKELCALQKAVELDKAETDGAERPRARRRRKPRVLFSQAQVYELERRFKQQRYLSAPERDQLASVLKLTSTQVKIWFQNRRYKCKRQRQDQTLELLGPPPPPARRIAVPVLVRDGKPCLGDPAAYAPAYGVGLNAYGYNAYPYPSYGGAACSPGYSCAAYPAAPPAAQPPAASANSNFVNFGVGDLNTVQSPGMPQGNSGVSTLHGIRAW
T3 sequence (Q08369 whole entry): as the sequence (Q08369 whole entry) above
T1 sequence (P42582 whole entry): as the sequence (P42582 whole entry) above

CN(C)c1ccc(/N=C/c2c[nH]nc2-c2ccc(F)cc2)cc1 [Compound 75]
activity at 3 µM [1, 4]: 108%
activity at 10 µM [1, 5]: 145%
activity at 3 µM [2, 4]: 110%
activity at 10 µM [2, 5]: 100%
activity at 3 µM [3, 4]: 107%
activity at 10 µM [3, 5]: 122%

CCN(CC)c1ccc(NC(=O)c2c(-c3ccoc3)noc2C)cc1 [Compound 39n]
activity at 3 µM [1, 6]: 122%
activity at 10 µM [1, 7]: 106%
activity at 3 µM [2, 8]: 119%
activity at 10 µM [2, 9]: 105%
activity at 3 µM [3, 10]: 108%

Cc1onc(-c2ccccc2)c1C(=O)Nc1ccc(C(=O)OCCC#N)cc1 [Compound 76]
activity at 3 µM [1, 11]: 132%
activity at 10 µM [1, 12]: 126%
activity at 3 µM [2, 11]: 98.7%
activity at 10 µM [2, 12]: 104%
activity at 3 µM [3, 11]: 97.1%
activity at 10 µM [3, 12]: 73.4%

CCN(CC)c1ccc(NC(=O)c2cn(C)cc2-c2cc(C)on2)cc1 [Compound 47m]
activity at 3 µM [1, 11]: 116%
activity at 10 µM [1, 12]: 114%
activity at 3 µM [2, 11]: 116%

CCC(=O)c1ccc(OCc2c(-c3ccccc3)noc2C)cc1 [Compound 34a, 1-[4-[(5-Methyl-3-phenylisoxazol-4-yl)methoxy]phenyl]propan-1-one]
activity at 3 µM [1, 4]: 111%
activity at 3 µM [2, 4]: 90.9%
activity at 3 µM [3, 4]: 106%

CC(C)c1ccc(NC(=O)c2noc3c2CCc2sccc2-3)cc1 [Compound 66]
activity at 3 µM ([1]; COS-1, NKX2-5 luciferase reporter assay, compound at 3 µM): 122%
activity at 10 µM ([1]; COS-1, NKX2-5 luciferase reporter assay, compound at 10 µM): 106%
activity at 3 µM ([2]; COS-1, GATA4-NKX2-5 transcriptional synergy luciferase reporter assay, compound at 3 µM): 132%
activity at 10 µM ([2]; COS-1, GATA4-NKX2-5 transcriptional synergy luciferase reporter assay, compound at 10 µM): 128%
activity at 10 µM ([3]; COS-1, GATA4 luciferase reporter assay, compound at 10 µM): 124%

CCN(CC)c1ccc(NC(=O)c2c(-n3cccc3)sc(C)c2C)cc1 [Compound 56]
activity at 3 µM [1, 6]: 102%
activity at 3 µM [2, 8]: 93.8%

Cc1onc(-c2ccccc2)c1C(=O)Nc1ccc(C(=O)OCCCC#N)cc1 [Compound 10b]
activity at 3 µM [1, 11]: 105%
activity at 3 µM [2, 11]: 93%
activity at 3 µM [3, 11]: 103%
activity at 10 µM [3, 12]: 114%

Cc1cc(-c2onc(C)c2C(=O)Nc2ccc3oc(-c4ccccc4)cc(=O)c3c2)no1 [Compound 73]
activity at 3 µM [2, 8]: 107%
activity at 10 µM [2, 9]: 114%
activity at 3 µM [3, 10]: 127%
activity at 10 µM [3, 13]: 123%

CCN(CC)c1ccc(-n2c(=O)c3c(C)onc3c3ccccc32)cc1 [Compound 78]
activity at 3 µM [1, 6]: 105%
activity at 10 µM [1, 7]: 112%
effect on GATA4–NKX2-5 transcriptional synergy (in words) [2]: no effect
activity at 3 µM [2, 8]: 84.1%
activity at 10 µM [2, 9]: 100%
activity at 3 µM [3, 10]: 101%
activity at 10 µM [3, 13]: 113%

CCN(CC)c1ccc(NC(=O)c2cc(C)sc2-c2cc(C)on2)cc1 [Compound 47l]
effect on NKX2-5 transcriptional activity (in words) [1]: did not affect
activity at 3 µM [2, 11]: 105%
activity at 3 µM [3, 11]: 119%

Cc1onc(-c2ccccc2)c1C(=O)Nc1ccc(C(=O)OCCCCC#N)cc1 [Compound 10c]
activity at 3 µM [1, 11]: 102%
activity at 10 µM [1, 12]: 147%
activity at 3 µM [2, 11]: 101%
activity at 3 µM [3, 11]: 109%
activity at 10 µM [3, 12]: 102%

CCN(CC)c1ccc(NC(=O)c2cn(C)nc2-c2cc(C)on2)cc1 [Compound 47f]
activity at 3 µM [1, 11]: 108%
activity at 3 µM [2, 11]: 110%

Cc1onc(-c2ccccc2)c1N=Cc1ccc(N(C)C)cc1 [SI108]
activity at 3 µM [1, 4]: 99.3%
activity at 10 µM [1, 5]: 103%
activity at 3 µM [2, 4]: 69.3%
activity at 10 µM [2, 5]: 109%
activity at 3 µM [3, 4]: 109%
activity at 10 µM [3, 5]: 97.6%

COc1ccc(-c2cc(NCc3ccc(N(C)C)cc3)n[nH]2)cc1 [SI92]
activity at 3 µM [1, 11]: 84%
activity at 10 µM [1, 12]: 78.3%
activity at 3 µM [2, 11]: 76.3%
activity at 10 µM [2, 12]: 85.4%
activity at 3 µM [3, 11]: 74.4%
activity at 10 µM [3, 12]: 72.4%

CCN(CC)c1ccc(NC(=O)c2c(C)nc3ccccn23)cc1 [Compound 47ab]
activity at 3 µM [1, 4]: 106%
activity at 3 µM [2, 4]: 83.4%
activity at 3 µM [3, 4]: 127%

CCN(CC)c1ccc(NC(=O)c2c(-c3ccc(C)s3)noc2C)cc1 [Compound 39p]
activity at 3 µM [1, 11]: 83.8%
activity at 10 µM [2, 12]: 102%
activity at 3 µM [3, 11]: 85.9%

CCN(CC)c1ccc(N(C)C(=O)c2c(-c3ccccc3)noc2C)cc1 [Compound 25a]
activity at 10 µM [1, 5]: 101%
activity at 3 µM [2, 4]: 78.1%

From article PMC7076710, “Synthesis, Identification, and Structure–Activity Relationship Analysis of GATA4 and NKX2-5 Protein–Protein Interaction Modulators” (Journal of Medicinal Chemistry, 2019)
